# Tests used:
# human TRPV1 [1] = biological target: T1, human TRPV1 (Homo sapiens (Human), UniProt Q8NER1); experiment: Capsaicin Activation Assay (intracellular Ca2+, FLIPR); format: cell-based; conditions: recombinant HEK293 cells expressing hTRPV1, 50 nM capsaicin
# Method in brief: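 Stably transfected HEK293 cells expressing human TRPV1 cDNA, plated the day before in poly-D-lysine plates. Compounds serially diluted from 10 mM DMSO stocks; intracellular Ca2+ fluorescence read on FLIPR at 1 to 5 second intervals.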
# human TRPV1 [2] = biological target: T1, human TRPV1; experiment: Acid Activation Assay (pH 5.0, intracellular Ca2+, FLIPR); format: cell-based; conditions: percentage of the maximal pH 5.0-induced response remaining; recombinant HEK293 hTRPV1 cells; maximum concentration tested 37.5 μM
# Method in brief: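 HEK293 cells stably expressing recombinant hTRPV1, loaded with Calcium-4 dye 90-120 min at 25° C. Compounds added over a 12-point half-log range (top 37.5 μM), then pH 5.0 DPBS/MES challenge after 3 min; FLIPR peak fluorescence over baseline given as % of maximal pH 5.0 response.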
# T1 sequence (Q8NER1 whole entry): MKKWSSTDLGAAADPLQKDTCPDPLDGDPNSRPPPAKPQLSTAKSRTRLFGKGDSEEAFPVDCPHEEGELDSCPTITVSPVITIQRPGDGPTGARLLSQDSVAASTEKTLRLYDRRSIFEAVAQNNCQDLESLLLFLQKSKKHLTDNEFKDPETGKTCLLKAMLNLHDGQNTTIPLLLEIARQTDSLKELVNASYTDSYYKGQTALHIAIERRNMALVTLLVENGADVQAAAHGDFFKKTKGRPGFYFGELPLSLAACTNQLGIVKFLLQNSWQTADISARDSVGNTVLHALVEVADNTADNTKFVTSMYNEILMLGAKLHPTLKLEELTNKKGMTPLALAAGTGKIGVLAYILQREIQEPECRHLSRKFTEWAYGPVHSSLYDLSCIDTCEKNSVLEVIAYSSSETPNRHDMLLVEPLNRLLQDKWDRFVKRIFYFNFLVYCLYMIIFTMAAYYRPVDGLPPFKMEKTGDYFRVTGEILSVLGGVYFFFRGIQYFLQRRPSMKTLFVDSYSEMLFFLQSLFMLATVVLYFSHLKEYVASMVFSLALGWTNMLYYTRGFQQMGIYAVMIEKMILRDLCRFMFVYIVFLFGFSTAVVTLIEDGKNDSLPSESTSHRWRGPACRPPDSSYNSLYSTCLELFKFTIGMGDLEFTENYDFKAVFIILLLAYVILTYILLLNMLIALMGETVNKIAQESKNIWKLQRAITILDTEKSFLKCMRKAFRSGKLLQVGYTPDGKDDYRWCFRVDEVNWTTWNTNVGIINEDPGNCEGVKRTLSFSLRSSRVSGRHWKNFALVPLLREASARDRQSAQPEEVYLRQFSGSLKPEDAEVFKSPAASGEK
SMILES,IC50 (human TRPV1 [1]),human TRPV1 H^+ (max % remain) (human TRPV1 [2])
"CN1C(=O)NCc2c(NC(=O)N[C@@H]3C[C@](C)(CF)Oc4cc(Cl)ccc43)cccc21 [Example 7, 1-[(2R,4R)-7-chloro-2-(fluoromethyl)-2-methyl-3,4-dihydro-2H-chromen-4-yl]-3-(1-methyl-2-oxo-1,2,3,4-tetrahydroquinazolin-5-yl)urea]",51 nM,27%
"CCC1(CC)C[C@@H](NC(=O)Nc2cccc3c2CNC(=O)N3C)c2cccc(F)c2O1 [Example 139, 1-[(4R)-2,2-diethyl-8-fluoro-3,4-dihydro-2H-chromen-4-yl]-3-(1-methyl-2-oxo-1,2,3,4-tetrahydroquinazolin-5-yl)urea]",12 nM,27%
"CCC1(CC)C[C@@H](NC(=O)Nc2ccc3c(c2)NC(=O)N(CCO)C3)c2ccc(Cl)cc2O1 [Example 47, 1-[(4R)-7-chloro-2,2-diethyl-3,4-dihydro-2H-chromen-4-yl]-3-[3-(2-hydroxyethyl)-2-oxo-1,2,3,4-tetrahydroquinazolin-7-yl]urea]",169 nM,0%
"O=C(Nc1ccc2c(c1)NC(=O)N(CCO)C2)N[C@@H]1CCOc2c1cccc2C(F)(F)F [Example 53, 1-[3-(2-hydroxyethyl)-2-oxo-1,2,3,4-tetrahydroquinazolin-7-yl]-3-[(4R)-8-(trifluoromethyl)-3,4-dihydro-2H-chromen-4-yl]urea]",1800 nM,1%
"CN1C(=O)NCc2c(NC(=O)N[C@@H]3CC4(CCC4)Oc4ccc(F)cc43)cccc21 [Example 154, 1-[(4R)-6-fluoro-3,4-dihydrospiro[chromene-2,1′-cyclobutan]-4-yl]-3-(1-methyl-2-oxo-1,2,3,4-tetrahydroquinazolin-5-yl)urea]",15 nM,20%
"CN1Cc2ccc(NC(=O)N[C@@H]3CCc4cc(C(F)(F)F)ccc43)cc2NC1=O [Example 174, 1-(3-methyl-2-oxo-1,2,3,4-tetrahydroquinazolin-7-yl)-3-[(1R)-5-(trifluoromethyl)-2,3-dihydro-1H-inden-1-yl]urea]",130 nM,52%
"CCC1(CC)C[C@@H](NC(=O)Nc2ccc3c(c2)N(C)C(=O)CC3)c2cccc(F)c2O1 [Example 259, 1-[(4R)-2,2-diethyl-8-fluoro-3,4-dihydro-2H-chromen-4-yl]-3-(1-methyl-2-oxo-1,2,3,4-tetrahydroquinolin-7-yl)urea]",4700 nM,89%
"CN1Cc2ccc(NC(=O)N[C@@H]3CCOc4ccc(F)cc43)cc2NC1=O [Example 199, 1-[(4R)-6-fluoro-3,4-dihydro-2H-chromen-4-yl]-3-(3-methyl-2-oxo-1,2,3,4-tetrahydroquinazolin-7-yl)urea]",6700 nM,58%
"C[C@@]1(C(F)(F)F)C[C@@H](NC(=O)Nc2ccc3c(c2)NC(=O)CO3)c2ccccc2O1 [Example 125, 1-[(2S,4R)-2-methyl-2-(trifluoromethyl)-3,4-dihydro-2H-chromen-4-yl]-3-(3-oxo-3,4-dihydro-2H-1,4-benzoxazin-6-yl)urea]",330 nM,96%
"C[C@@]1(CF)C[C@@H](NC(=O)Nc2ccc3c(c2)NC(=O)CC3)c2ccc(Cl)cc2O1 [Example 246, 1-[(2S,4R)-7-chloro-2-(fluoromethyl)-2-methyl-3,4-dihydro-2H-chromen-4-yl]-3-(2-oxo-1,2,3,4-tetrahydroquinolin-7-yl)urea]",130 nM,33%
"CN1C(=O)CCc2ccc(NC(=O)N[C@@H]3CC4(CCC4)Oc4ccc(F)cc43)cc21 [Example 269, 1-[(4R)-6-fluoro-3,4-dihydrospiro[chromene-2,1′-cyclobutan]-4-yl]-3-(1-methyl-2-oxo-1,2,3,4-tetrahydroquinolin-7-yl)urea]",540 nM,70%
"CN1C(=O)CCc2ccc(NC(=O)N[C@@H]3CC(CF)(CF)Oc4c(F)cccc43)cc21 [Example 281, 1-[(4R)-8-fluoro-2,2-bis(fluoromethyl)-3,4-dihydro-2H-chromen-4-yl]-3-(1-methyl-2-oxo-1,2,3,4-tetrahydroquinolin-7-yl)urea]",820 nM,86%
"CN1C(=O)NCc2c(NC(=O)N[C@@H]3CC(C)(C)Oc4cc(OC(F)(F)F)ccc43)cccc21 [Example 137, 1-[(4R)-2,2-dimethyl-7-(trifluoromethoxy)-3,4-dihydro-2H-chromen-4-yl]-3-(1-methyl-2-oxo-1,2,3,4-tetrahydroquinazolin-5-yl)urea]",38 nM,17%
"CN1Cc2c(NC(=O)N[C@@H]3CC(CF)(CF)Oc4cc(Cl)ccc43)cccc2N(C)C1=O [Example 167, 1-[(4R)-7-chloro-2,2-bis(fluoromethyl)-3,4-dihydro-2H-chromen-4-yl]-3-(1,3-dimethyl-2-oxo-1,2,3,4-tetrahydroquinazolin-5-yl)urea]",5 nM,5%
"Cn1c(=O)ccc2c(NC(=O)N[C@@H]3CC(C)(C)Oc4cc(C(F)(F)F)ccc43)cccc21 [Example 91, 1-[(4R)-2,2-dimethyl-7-(trifluoromethyl)-3,4-dihydro-2H-chromen-4-yl]-3-(1-methyl-2-oxo-1,2-dihydroquinolin-5-yl)urea]",15 nM,50%
"CN1C(=O)NCc2c(NC(=O)N[C@@H]3C[C@@](C)(C(F)(F)F)Oc4ccccc43)cccc21 [Example 165, 1-(1-methyl-2-oxo-1,2,3,4-tetrahydroquinazolin-5-yl)-3-[(2S,4R)-2-methyl-2-(trifluoromethyl)-3,4-dihydro-2H-chromen-4-yl]urea]",3 nM,18%
"O=C1COc2ccc(NC(=O)N[C@H]3CC4(CCC4)Oc4ccc(F)cc43)cc2N1 [Example 122, 1-[(4S)-6-fluoro-3,4-dihydrospiro[chromene-2,1′-cyclobutan]-4-yl]-3-(3-oxo-3,4-dihydro-2H-1,4-benzoxazin-6-yl)urea]",> 38000 nM,104%
"O=C1COc2ccc(NC(=O)N[C@@H]3CC(CF)(CF)Oc4cc(Cl)ccc43)cc2N1 [Example 29, 1-[(4R)-7-chloro-2,2-bis(fluoromethyl)-3,4-dihydro-2H-chromen-4-yl]-3-(3-oxo-3,4-dihydro-2H-1,4-benzoxazin-6-yl)urea]",100 nM,93%
"CN1Cc2ccc(NC(=O)N[C@@H]3CC(CF)(CF)Oc4cc(F)ccc43)cc2NC1=O [Example 209, 1-[(4R)-7-fluoro-2,2-bis(fluoromethyl)-3,4-dihydro-2H-chromen-4-yl]-3-(3-methyl-2-oxo-1,2,3,4-tetrahydroquinazolin-7-yl)urea]",290 nM,57%
"CN1Cc2ccc(NC(=O)N[C@@H]3CC(C)(C)Oc4cc(C(F)(F)F)ccc43)cc2NC1=O [Example 184, 1-[(4R)-2,2-dimethyl-7-(trifluoromethyl)-3,4-dihydro-2H-chromen-4-yl]-3-(3-methyl-2-oxo-1,2,3,4-tetrahydroquinazolin-7-yl)urea]",86 nM,44%
"CCC1(CC)C[C@@H](NC(=O)Nc2cccc3c2CNC(=O)N3C)c2ccc(Cl)c(Cl)c2O1 [Example 147, 1-[(4R)-7,8-dichloro-2,2-diethyl-3,4-dihydro-2H-chromen-4-yl]-3-(1-methyl-2-oxo-1,2,3,4-tetrahydroquinazolin-5-yl)urea]",600 nM,15%
"Cn1c(=O)ccc2c(NC(=O)N[C@@H]3CC(CF)(CF)Oc4cc(C(F)(F)F)ccc43)cccc21 [Example 92, 1-[(4R)-2,2-bis(fluoromethyl)-7-(trifluoromethyl)-3,4-dihydro-2H-chromen-4-yl]-3-(1-methyl-2-oxo-1,2-dihydroquinolin-5-yl)urea]",19 nM,43%
"O=C1CCc2ccc(NC(=O)N[C@@H]3CCOc4c3cccc4C(F)(F)F)cc2N1 [Example 238, 1-(2-oxo-1,2,3,4-tetrahydroquinolin-7-yl)-3-[(4R)-8-(trifluoromethyl)-3,4-dihydro-2H-chromen-4-yl]urea]",510 nM,47%
"Cn1c(=O)ccc2c(NC(=O)N[C@@H]3CC(CF)(CF)Oc4ccc(F)cc43)cccc21 [Example 71, 1-[(4R)-6-fluoro-2,2-bis(fluoromethyl)-3,4-dihydro-2H-chromen-4-yl]-3-(1-methyl-2-oxo-1,2-dihydroquinolin-5-yl)urea]",29 nM,46%
"CN1C(=O)NCc2c(NC(=O)N[C@@H]3CC(C)(C)Oc4ccc(F)cc43)cccc21 [Example 157, 1-[(4R)-6-fluoro-2,2-dimethyl-3,4-dihydro-2H-chromen-4-yl]-3-(1-methyl-2-oxo-1,2,3,4-tetrahydroquinazolin-5-yl)urea]",47 nM,36%
"Cn1c(=O)ccc2c(NC(=O)N[C@@H]3C[C@@](C)(C(F)(F)F)Oc4ccccc43)cccc21 [Example 25, 1-(1-methyl-2-oxo-1,2-dihydroquinolin-5-yl)-3-[(2S,4R)-2-methyl-2-(trifluoromethyl)-3,4-dihydro-2H-chromen-4-yl]urea]",18 nM,65%
"Cn1c(=O)ccc2c(NC(=O)N[C@@H]3CCOc4cc(OC(F)(F)F)ccc43)cccc21 [Example 87, 1-(1-methyl-2-oxo-1,2-dihydroquinolin-5-yl)-3-[(4R)-7-(trifluoromethoxy)-3,4-dihydro-2H-chromen-4-yl]urea]",28 nM,57%
